The text below walks through data of patent publication US10900069B2, “Devices and methods useful for detecting mechanical forces of ligand receptor interactions” (Emory University, priority 2016, dated 2021).

The test system of experiment [1] is integrin mediated tension in NIH/3T3 cells. Briefly: Dose-dependent inhibition of integrin mediated tension quantified by MCR. It counts as cell-based. As to conditions: NIH/3T3 cells pretreated 15 min with blebbistatin (10 nm-10 mm as printed), 1 h on 12 pN duplexes. The protocol: The non-muscle myosin II inhibitor blebbistatin, which diminishes myosin contractility and thus reduces forces transmitted by focal adhesions, was investigated. NIH/3T3 cells were pretreated with a range of blebbistatin concentrations (10 nm-[…]) for 15 min. The cells onto the surface were incubated with the 12 pN duplexes for 1 h, which was then followed by MCR readout. […] The MCR signal is a direct readout of integrin tension, measuring the dose-dependent dissipation of actomyosin contractile forces.
Cells were incubated with the cRGDfK-labelled duplex surfaces in DMEM for 1 h to promote cell adhesion. Surfaces were then washed with 0.1×SSC. Subsequently, surfaces were incubated in 1× CutSmart® buffer (20 mM Tris-acetate, 10 mM Mg(OAc)2, 50 mM KOAc, 100 μg/mL BSA, pH 7.9) with 100 nM circular template and 1 U/μL T4 ligase at 37° C. for 2 h to ensure complete ligation. Then, 250 μM dNTPs and 0.1 U/μL Phi 29 polymerase were added to the solutions and mixed well. The surfaces were incubated at 37° C. for 90 min to allow for rolling circle amplification. […] Finally, the surface was incubated with 100 nM Cy3B-FISH probe in hybridization buffer (0.5 M NaCl, 20 mM Tris-HCl, 20 mM EDTA, and 0.01% Tween, pH=7.4) at 37° C. for 30 min, rinsed with three washes of 0.1×TNT/0.1% SDS and subjected to fluorescence imaging. […]

The subject of experiment [2] is NIH/3T3 cells. The experiment in a line: Brightfield imaging and F-actin staining of drug treated cells. It counts as cell-based.

On to `Cc1ccc2c(c1)C(=O)C1(O)CCN(c3ccccc3)C1=N2` (stereo not drawn) [blebbistatin], for which the MCR signal result in experiment [1] is reported as “dose-dependent relationship”. For the same compound, in experiment [2] (highest blebbistatin doses), the F-actin staining entry is “more disorganized and shorter actin filaments”. Moreover, the “cell shape by brightfield imaging” value in experiment [2] (increasing drug dose) was “cells become more rounded with increasing drug dose”.
